Experiment: Treatment-emergent adverse events (MedDRA, NCI-CTCAE v4.03), safety populations
Assay type: in vivo, human
Details: Part B, 400 mg QD (N = 49)
Description: Overall safety in Parts A and B was assessed by tabulating TEAEs, coded using the Medical Dictionary for Regulatory Activities (MedDRA) version 22.1, and graded according to NCI-CTCAE v4.03 criteria. TEAEs were classified as related or unrelated to amcenestrant therapy based upon the local investigating physician’s clinical judgment. The safety population included all patients exposed to at least one dose of the study treatment. Results were analyzed using descriptive statistics.

O=C(O)c1ccc2c(c1)CCCC(c1ccc(Cl)cc1Cl)=C2c1ccc(O[C@H]2CCN(CCCF)C2)cc1 [amcenestrant, 6-(2,4-Dichlorophenyl)−5-[4-[(3S)−1-(3-fluoropropyl)pyrrolidin-3-yl]oxyphenyl]−8,9-dihydro-7H-benzo[7]annulene-2-carboxylic acid]
4 (8.2) n (%): Cough, TEAEs, All grades | Cough, TEAEs, Grade 1 | Gastroesophageal reflux disease, TEAEs, All grades | Gastroesophageal reflux disease, TEAEs, Grade 1
7 (14.3) n (%): Decreased appetite, TEAEs, All grades
3 (6.1) n (%): Back pain, TEAEs, Grade 1 | Constipation, Treatment-related TEAEs, All Grades | Depression, TEAEs, All grades | Depression, TEAEs, Grade 1 | Dry skin, TEAEs, All grades | Edema peripheral, TEAEs, All grades | Edema peripheral, TEAEs, Grade 1 | Gastroesophageal reflux disease, Treatment-related TEAEs, All Grades | Gastroesophageal reflux disease, Treatment-related TEAEs, Grade 1 | Headache, TEAEs, All grades | Headache, TEAEs, Grade 1
0 n (%): Back pain, TEAEs, Grade ≥3 | Back pain, Treatment-related TEAEs, All Grades | Back pain, Treatment-related TEAEs, Grade 1 | Back pain, Treatment-related TEAEs, Grade 2 | Back pain, Treatment-related TEAEs, Grade ≥3 | Constipation, TEAEs, Grade ≥3 | Constipation, Treatment-related TEAEs, Grade ≥3 | Cough, TEAEs, Grade 2 | Cough, TEAEs, Grade ≥3 | Cough, Treatment-related TEAEs, Grade 2 | Cough, Treatment-related TEAEs, Grade ≥3 | Decreased appetite, TEAEs, Grade ≥3 | Decreased appetite, Treatment-related TEAEs, Grade 2 | Decreased appetite, Treatment-related TEAEs, Grade ≥3 | Depression, TEAEs, Grade 2 | Depression, TEAEs, Grade ≥3 | Depression, Treatment-related TEAEs, Grade 2 | Depression, Treatment-related TEAEs, Grade ≥3 | Diarrhea, Treatment-related TEAEs, Grade 2 | Diarrhea, Treatment-related TEAEs, Grade ≥3 | Dry skin, TEAEs, Grade ≥3 | Dry skin, Treatment-related TEAEs, Grade 2 | Dry skin, Treatment-related TEAEs, Grade ≥3 | Dyspnea, TEAEs, Grade ≥3 | Dyspnea, Treatment-related TEAEs, Grade 2 | Dyspnea, Treatment-related TEAEs, Grade ≥3 | Edema peripheral, TEAEs, Grade 2 | Edema peripheral, TEAEs, Grade ≥3 | Edema peripheral, Treatment-related TEAEs, Grade 2 | Edema peripheral, Treatment-related TEAEs, Grade ≥3 | Fatigue, Treatment-related TEAEs, Grade 2 | Fatigue, Treatment-related TEAEs, Grade ≥3 | Gastroesophageal reflux disease, TEAEs, Grade 2 | Gastroesophageal reflux disease, TEAEs, Grade ≥3 | Gastroesophageal reflux disease, Treatment-related TEAEs, Grade 2 | Gastroesophageal reflux disease, Treatment-related TEAEs, Grade ≥3 | Headache, TEAEs, Grade 2 | Headache, TEAEs, Grade ≥3
12 (24.5) n (%): Constipation, TEAEs, Grade 1 | Fatigue, TEAEs, All grades
1 (2.0) n (%): Constipation, Treatment-related TEAEs, Grade 2 | Cough, Treatment-related TEAEs, All Grades | Cough, Treatment-related TEAEs, Grade 1 | Diarrhea, TEAEs, Grade ≥3 | Diarrhea, Treatment-related TEAEs, All Grades | Diarrhea, Treatment-related TEAEs, Grade 1 | Dry skin, TEAEs, Grade 2 | Dry skin, Treatment-related TEAEs, All Grades | Dry skin, Treatment-related TEAEs, Grade 1 | Dyspnea, Treatment-related TEAEs, All Grades | Dyspnea, Treatment-related TEAEs, Grade 1 | Edema peripheral, Treatment-related TEAEs, All Grades | Edema peripheral, Treatment-related TEAEs, Grade 1
2 (4.1) n (%): Back pain, TEAEs, Grade 2 | Constipation, TEAEs, Grade 2 | Constipation, Treatment-related TEAEs, Grade 1 | Decreased appetite, TEAEs, Grade 2 | Decreased appetite, Treatment-related TEAEs, All Grades | Decreased appetite, Treatment-related TEAEs, Grade 1 | Depression, Treatment-related TEAEs, All Grades | Depression, Treatment-related TEAEs, Grade 1 | Diarrhea, TEAEs, Grade 2 | Dry skin, TEAEs, Grade 1 | Dyspnea, TEAEs, Grade 2 | Fatigue, TEAEs, Grade 2 | Fatigue, TEAEs, Grade ≥3 | Fatigue, Treatment-related TEAEs, All Grades | Fatigue, Treatment-related TEAEs, Grade 1
6 (12.2) n (%): Dyspnea, TEAEs, Grade 1
8 (16.3) n (%): Diarrhea, TEAEs, All grades | Dyspnea, TEAEs, All grades | Fatigue, TEAEs, Grade 1
14 (28.6) n (%): Constipation, TEAEs, All grades
5 (10.2) n (%): Back pain, TEAEs, All grades | Decreased appetite, TEAEs, Grade 1 | Diarrhea, TEAEs, Grade 1

Source: PMC9284491 (Nature Communications, 2022)
